The record followed here is ChEMBL document CHEMBL1146959, “Design and structure-activity relationship of heterocyclic analogs of 4-amino-3-benzimidazol-2-ylhydroquinolin-2-ones as inhibitors of receptor tyrosine kinases” (Bioorg Med Chem Lett, 2006).

The structures appear in SMILES notation.

Series [1] concerns the target Vascular endothelial growth factor receptor 2 (Mus musculus, UniProt P35918). The experiment in a line: Inhibitory activity against VEGFR2.
The target in series [2] is Platelet-derived growth factor receptor beta (Mus musculus, UniProt P05622). The experiment in a line: Inhibitory activity against PDGFRbeta.
Chain of Platelet-derived growth factor receptor beta (P05622 whole entry): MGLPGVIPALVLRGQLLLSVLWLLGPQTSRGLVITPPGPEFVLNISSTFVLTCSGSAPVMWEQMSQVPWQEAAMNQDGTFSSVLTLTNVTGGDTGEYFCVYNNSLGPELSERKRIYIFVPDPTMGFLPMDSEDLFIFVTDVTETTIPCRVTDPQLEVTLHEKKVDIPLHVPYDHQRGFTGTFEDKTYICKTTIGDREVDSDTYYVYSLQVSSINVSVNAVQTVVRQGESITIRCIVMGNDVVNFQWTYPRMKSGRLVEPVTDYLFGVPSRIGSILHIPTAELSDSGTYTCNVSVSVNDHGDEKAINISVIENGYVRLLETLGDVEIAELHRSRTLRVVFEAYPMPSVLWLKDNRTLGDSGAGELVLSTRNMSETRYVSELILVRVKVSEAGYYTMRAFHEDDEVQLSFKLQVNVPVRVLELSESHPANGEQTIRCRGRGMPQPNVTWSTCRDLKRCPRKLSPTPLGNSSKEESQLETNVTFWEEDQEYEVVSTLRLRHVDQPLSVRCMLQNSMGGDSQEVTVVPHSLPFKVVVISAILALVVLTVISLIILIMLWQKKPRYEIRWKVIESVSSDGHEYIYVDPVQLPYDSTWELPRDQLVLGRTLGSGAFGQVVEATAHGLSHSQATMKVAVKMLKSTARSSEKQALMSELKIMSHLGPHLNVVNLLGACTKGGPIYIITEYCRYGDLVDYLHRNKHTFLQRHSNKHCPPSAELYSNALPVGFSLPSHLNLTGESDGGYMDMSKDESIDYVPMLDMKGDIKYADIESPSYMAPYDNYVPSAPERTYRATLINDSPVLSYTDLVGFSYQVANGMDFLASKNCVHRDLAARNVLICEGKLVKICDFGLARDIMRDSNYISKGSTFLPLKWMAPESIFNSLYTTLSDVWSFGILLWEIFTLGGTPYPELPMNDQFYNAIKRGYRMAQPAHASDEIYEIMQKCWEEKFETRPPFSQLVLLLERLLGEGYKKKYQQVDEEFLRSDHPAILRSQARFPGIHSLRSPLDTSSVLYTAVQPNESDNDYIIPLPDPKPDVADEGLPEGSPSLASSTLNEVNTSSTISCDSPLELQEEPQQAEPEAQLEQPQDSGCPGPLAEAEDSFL
The target in series [3] is Fibroblast growth factor receptor 1 (Homo sapiens, UniProt P11362). The experiment in a line: Inhibitory activity against FGFR1.
Chain of Fibroblast growth factor receptor 1 (P11362 whole entry): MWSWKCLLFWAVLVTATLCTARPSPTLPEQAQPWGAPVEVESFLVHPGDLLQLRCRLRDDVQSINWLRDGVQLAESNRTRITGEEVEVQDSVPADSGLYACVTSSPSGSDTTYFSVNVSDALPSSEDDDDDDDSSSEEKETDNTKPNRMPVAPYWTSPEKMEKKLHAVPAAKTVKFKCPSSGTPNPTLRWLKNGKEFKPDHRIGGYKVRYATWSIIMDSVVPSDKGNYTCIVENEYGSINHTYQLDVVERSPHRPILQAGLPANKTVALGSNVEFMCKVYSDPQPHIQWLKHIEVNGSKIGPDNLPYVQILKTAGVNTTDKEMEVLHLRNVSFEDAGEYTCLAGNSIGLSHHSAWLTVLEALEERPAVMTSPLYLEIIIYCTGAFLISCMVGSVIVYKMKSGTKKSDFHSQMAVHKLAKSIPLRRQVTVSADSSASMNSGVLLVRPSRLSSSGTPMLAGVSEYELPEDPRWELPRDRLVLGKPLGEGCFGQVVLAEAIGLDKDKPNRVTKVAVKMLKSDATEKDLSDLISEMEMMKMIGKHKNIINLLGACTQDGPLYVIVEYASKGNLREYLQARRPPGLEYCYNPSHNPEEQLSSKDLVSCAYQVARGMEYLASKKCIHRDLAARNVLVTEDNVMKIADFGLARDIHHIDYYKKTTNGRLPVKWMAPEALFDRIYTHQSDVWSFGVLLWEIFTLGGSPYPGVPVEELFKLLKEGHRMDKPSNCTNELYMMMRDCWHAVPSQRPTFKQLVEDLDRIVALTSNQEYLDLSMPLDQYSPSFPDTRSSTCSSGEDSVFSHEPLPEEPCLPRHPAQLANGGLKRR
The test system of another series is HMEC. The experiment in a line: Activity against HMVEC. It is filed as functional, cell-based. As to conditions: Homo sapiens.
Series [4] in a line: Oral bioavailability in mice. It is filed as ADME, organism-based. As to conditions: mouse, in vivo.
A short description of series [5]: Clearance in mice. It is filed as ADME, organism-based. As to conditions: mouse, in vivo.
The nature of series [6]: Half life in mice at 5 mg/kg, iv. Format: ADME, organism-based. Further details: dose 5 mg/kg, route intravenous. As to conditions: mouse, in vivo.
Series [7] is described as follows: Half life in mice at 20 mg/kg, po. Conditions: mouse, in vivo. Format: ADME, organism-based. Further details: dose 20 mg/kg, route oral.
The target of series [8] is Vascular endothelial growth factor receptor 1 (Homo sapiens, UniProt P17948).
Chain of Vascular endothelial growth factor receptor 1 (P17948 whole entry): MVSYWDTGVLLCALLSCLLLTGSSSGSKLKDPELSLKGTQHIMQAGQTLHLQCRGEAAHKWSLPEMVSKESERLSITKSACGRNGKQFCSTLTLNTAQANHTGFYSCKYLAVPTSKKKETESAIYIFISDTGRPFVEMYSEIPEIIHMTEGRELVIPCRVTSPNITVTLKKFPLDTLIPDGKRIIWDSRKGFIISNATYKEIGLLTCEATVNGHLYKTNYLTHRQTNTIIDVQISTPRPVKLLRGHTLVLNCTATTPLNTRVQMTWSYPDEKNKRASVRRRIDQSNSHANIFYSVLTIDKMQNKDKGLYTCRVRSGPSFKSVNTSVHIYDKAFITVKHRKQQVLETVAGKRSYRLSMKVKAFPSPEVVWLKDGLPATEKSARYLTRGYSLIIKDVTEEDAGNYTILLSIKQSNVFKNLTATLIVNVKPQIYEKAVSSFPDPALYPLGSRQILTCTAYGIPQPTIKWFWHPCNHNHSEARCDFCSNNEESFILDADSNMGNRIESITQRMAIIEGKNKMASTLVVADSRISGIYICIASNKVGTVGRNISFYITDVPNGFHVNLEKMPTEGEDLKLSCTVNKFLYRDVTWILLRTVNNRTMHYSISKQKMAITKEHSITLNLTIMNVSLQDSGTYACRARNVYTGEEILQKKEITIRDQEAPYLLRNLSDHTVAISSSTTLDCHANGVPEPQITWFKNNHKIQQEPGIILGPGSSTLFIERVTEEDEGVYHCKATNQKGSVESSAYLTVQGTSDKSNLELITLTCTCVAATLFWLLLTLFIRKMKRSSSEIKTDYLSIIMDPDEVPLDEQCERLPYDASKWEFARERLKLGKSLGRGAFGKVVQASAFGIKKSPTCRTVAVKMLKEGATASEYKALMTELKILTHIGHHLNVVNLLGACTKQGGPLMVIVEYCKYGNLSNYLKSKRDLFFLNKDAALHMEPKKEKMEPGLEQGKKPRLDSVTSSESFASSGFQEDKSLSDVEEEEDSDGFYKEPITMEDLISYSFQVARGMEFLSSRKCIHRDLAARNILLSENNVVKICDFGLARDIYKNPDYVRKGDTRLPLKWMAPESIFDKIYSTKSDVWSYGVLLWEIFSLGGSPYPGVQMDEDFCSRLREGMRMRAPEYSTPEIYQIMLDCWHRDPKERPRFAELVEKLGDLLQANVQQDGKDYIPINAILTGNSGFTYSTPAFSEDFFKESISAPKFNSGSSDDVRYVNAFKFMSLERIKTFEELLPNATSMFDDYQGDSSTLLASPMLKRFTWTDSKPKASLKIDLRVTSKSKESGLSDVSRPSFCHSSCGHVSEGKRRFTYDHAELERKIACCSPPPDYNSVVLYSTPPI
Description: Inhibitory activity against VEGFR1

Chain of Vascular endothelial growth factor receptor 2 (P35918 whole entry): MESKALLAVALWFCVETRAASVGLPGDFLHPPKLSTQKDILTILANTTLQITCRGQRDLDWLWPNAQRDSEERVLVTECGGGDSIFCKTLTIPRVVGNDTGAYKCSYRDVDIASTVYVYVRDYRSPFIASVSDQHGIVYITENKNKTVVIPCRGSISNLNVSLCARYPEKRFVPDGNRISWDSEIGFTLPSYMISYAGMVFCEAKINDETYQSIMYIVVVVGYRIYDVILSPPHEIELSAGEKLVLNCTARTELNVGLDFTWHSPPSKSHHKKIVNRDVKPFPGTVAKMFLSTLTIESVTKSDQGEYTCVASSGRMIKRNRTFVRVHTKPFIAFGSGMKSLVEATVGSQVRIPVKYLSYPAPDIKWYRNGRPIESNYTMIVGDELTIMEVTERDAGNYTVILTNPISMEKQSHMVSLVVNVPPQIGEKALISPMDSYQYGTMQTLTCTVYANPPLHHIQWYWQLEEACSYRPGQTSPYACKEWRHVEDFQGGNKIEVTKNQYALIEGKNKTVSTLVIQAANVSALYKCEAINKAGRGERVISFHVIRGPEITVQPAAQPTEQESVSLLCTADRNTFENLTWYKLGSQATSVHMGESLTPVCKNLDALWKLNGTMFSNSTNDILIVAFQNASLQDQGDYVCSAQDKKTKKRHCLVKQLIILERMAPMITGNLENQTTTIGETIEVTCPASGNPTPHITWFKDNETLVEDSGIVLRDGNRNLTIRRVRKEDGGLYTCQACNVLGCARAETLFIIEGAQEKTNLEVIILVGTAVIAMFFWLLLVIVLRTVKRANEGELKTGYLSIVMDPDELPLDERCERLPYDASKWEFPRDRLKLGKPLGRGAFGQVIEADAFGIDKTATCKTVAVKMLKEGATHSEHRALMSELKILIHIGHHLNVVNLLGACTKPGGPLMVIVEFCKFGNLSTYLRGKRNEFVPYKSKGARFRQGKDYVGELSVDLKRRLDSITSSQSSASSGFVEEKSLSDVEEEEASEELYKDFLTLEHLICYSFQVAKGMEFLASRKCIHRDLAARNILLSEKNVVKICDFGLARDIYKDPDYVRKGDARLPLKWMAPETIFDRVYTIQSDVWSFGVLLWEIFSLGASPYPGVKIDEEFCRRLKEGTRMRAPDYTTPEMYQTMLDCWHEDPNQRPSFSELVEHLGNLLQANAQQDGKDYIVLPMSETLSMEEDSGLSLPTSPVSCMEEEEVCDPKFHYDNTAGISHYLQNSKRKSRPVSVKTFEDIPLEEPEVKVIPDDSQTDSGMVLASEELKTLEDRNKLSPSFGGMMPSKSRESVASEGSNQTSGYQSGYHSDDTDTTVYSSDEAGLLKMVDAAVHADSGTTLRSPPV

One may read the IC50 as the midpoint of a concentration-inhibition curve. A low value points to greater potency in that assay. Broadly, the EC50 is the concentration giving half of the maximal effect. By bioavailability is commonly meant the share of a dose that reaches the circulation, judged against a reference dose that is usually intravenous. By clearance is commonly meant the volume of plasma or blood freed of the substance per unit of time. A higher clearance goes with efficient removal. Broadly, the half-life is the time needed for the level to fall by half in the phase considered. Lower therefore signals rapid decline. With `Nc1c(-c2nc3cc(N4CCOCC4)ccc3[nH]2)c(=O)[nH]c2ccccc12`, the IC50 was 4 nM in series [1], 38 nM in series [2] and 21 nM in series [3]. In the series on HMEC, this compound gave an EC50 of 40 nM. The same compound gave a bioavailability in series [4] of 100%. The compound also gave a clearance in [5] of 13 mL/min/kg. In addition, the half-life amounted to 1.18 h in [6] and 3.6 h in [7].
Take `CN1CCN(c2ccc3[nH]c(-c4c(N)c5ccccc5[nH]c4=O)nc3c2)CC1`: the IC50 in series [1] is 13 nM; in series [2], 27 nM; in [3], 8 nM. The concentration for a half-maximal effect (EC50) with HMEC came to 20 nM.
The corresponding values for `CN1CCN(c2ccc3nc(-c4c(N)c5ccccc5[nH]c4=O)[nH]c3n2)CC1` are 24 nM, 30 nM, 10 nM and 51 nM.
The corresponding values for `Nc1c(-c2nc3cccnc3[nH]2)c(=O)[nH]c2ccccc12` are 16 nM, 25 nM, 51 nM and 88 nM.
The corresponding values for `Nc1c(-c2nc3cccnc3[nH]2)c(=O)[nH]c2cnccc12` are 12 nM, 49 nM, 30 nM and 77 nM.
Turning to `Nc1c(-c2nc3cc(N4CCOCC4)ccc3[nH]2)c(O)nc2cnccc12`, the IC50 is 2 nM in series [1], 64 nM in series [2] and 10 nM in series [3]. The same compound yielded a concentration for a half-maximal effect (EC50) in the series on HMEC of 84 nM. Further, in series [4], the bioavailability was determined as 87%. The same compound registered a clearance in series [5] of 24 mL/min/kg. Further, the half-life was 0.433 h in series [6] and 1.3 h in [7].
Consider `Nc1c2cnnc-2[nH]c(O)c1-c1nc2ccccc2[nH]1`, for which the results for the IC50 in series [1], in series [2] and in [3] were 507 nM, 326 nM and 3170 nM, respectively. In the series on HMEC, this compound showed an EC50 of 3820 nM.
The corresponding values for `CN1CCN(c2ccc3[nH]c(-c4c(O)nc5cccnc5c4N)nc3c2)CC1` are 33 nM, 55 nM, 43 nM and 89 nM.
The corresponding values for `Nc1c(-c2nc3ccccc3[nH]2)c(O)nc2sccc12` are 109 nM, 691 nM, 348 nM and 850 nM.
Regarding `CN1CCN(c2ccc3[nH]c(-c4c(O)nc5cnccc5c4N)nc3c2)CC1`, the results for the IC50 in series [1], in [2] and in series [3] were 1 nM, 43 nM and 4 nM, respectively. Besides, the EC50 in the series with HMEC came out at 16 nM.
The corresponding values for `Oc1nc2cnccc2c(O)c1-c1nc2ccccc2[nH]1` are 168 nM, 1590 nM, 576 nM and 2200 nM.
Turning to `Oc1nc2ncccc2c(O)c1-c1nc2ccccc2[nH]1`, the IC50 in series [1] is 3000 nM; in series [2], 6530 nM; in series [3] it was 5000 nM. Moreover, in the series with HMEC, the EC50 is > 10000 nM.
Take `O=c1[nH]c2ccccc2c(O)c1-c1nc2ccccc2[nH]1`: the IC50 in [1] was 114 nM; in series [2], 395 nM; in series [3], 215 nM; in series [8] it was 162 nM. This compound also came in with an EC50 in the series with HMEC of 428 nM.
As to `Nc1c(-c2nc3ccc(N4CCOCC4)nc3[nH]2)c(=O)[nH]c2ccccc12`, the 50% inhibitory concentration (IC50) in [1] came out at 8 nM; in [2], 48 nM; in [3], 47 nM. Moreover, a half-maximal response with HMEC (EC50) required 34 nM. Also, the bioavailability in series [4] worked out at 84%. In series [5], this compound gave a clearance of 61 mL/min/kg. The figures for the half-life in series [6] and in series [7] were 1.08 h and 0.95 h, respectively.
For the compound `Nc1c(-c2nc3cc(N4CCOCC4)ccc3[nH]2)c(O)nc2ccncc12`, the IC50 turned out to be 57 nM in [1], 18 nM in [2] and 100 nM in [3]. Further, the response in the series on HMEC was half-maximal at 768 nM (EC50).
On to `Cn1ncc2c(N)c(-c3nc4ccccc4[nH]3)c(O)nc21`, for which the IC50 in series [1] turned out to be 3000 nM; in [2], 575 nM; in series [3] it was 3000 nM. Moreover, in the series with HMEC, the concentration giving a half-maximal response (EC50) was found to be 321 nM.
As to `Nc1c2ncnc-2[nH]c(O)c1-c1nc2ccccc2[nH]1`, the half-maximal inhibitory concentration (IC50) in series [1] was found to be 552 nM; in series [2], 154 nM; in [3] it was 2660 nM. For the same compound, in the series with HMEC, the 50% effective concentration (EC50) is 3680 nM.
Regarding `Nc1c(-c2nc3ccccc3[nH]2)c(=O)[nH]c2ccccc12`, the half-maximal inhibitory concentration (IC50) in series [1] amounted to 25 nM; in series [2] it was 102 nM; in series [3], 44 nM; in series [8], 28 nM.
Turning to `Nc1c(-c2nc3ccccc3[nH]2)c(O)nc2cnccc12`, the figures for the IC50 in series [1], in series [2] and in series [3] were 3 nM, 57 nM and 10 nM, respectively. In the series with HMEC, the concentration giving a half-maximal response (EC50) was 53 nM.
